Assay results from patent US9499495B2, “Quinazolines and azaquinazolines as dual inhibitors of RAS/RAF/MEK/ERK and PI3K/AKT/PTEN/mTOR pathways” (Asana Biosciences, LLC, priority 2013, dated 2016).

What was measured:
RKO cells = assay: XTT assay for cell viability, RKO cells; type: cell-based; conditions: Homo sapiens, 72 h
Protocol: Cell lines (A375 ATCC No. CRL-1619, A2058 ATCC No. CRL-11147 and RKO ATCC No. CRL-2577, American Type Culture Collection (ATCC), Manassas Va.) once attaining ˜80% confluency were trypsinized, centrifuged and resuspended in fresh media. Cells (1000-2000/per well) were seeded in 96-well plate and incubated over-night at 37° C. in a 5% CO2 incubator. Compound dilutions were prepared in 100% DMSO followed by dilutions in the respective media. The cells were treated with NCEs for 72 h at 37° C. in 5% CO2 incubator. After 72 h, freshly prepared XTT (1 mg/ml)/PMS (25 μM) solution was added, incubated for 2 to 3 h at 37° C. and the absorbance was measured at 450 nm using an ELISA plate reader. Keeping DMSO control as 100%, the effect of the compound to inhibit the cell proliferation was calculated and the GI50 values were determined using sigmoidal dose response curve fit in GraphPad Prism® v5 software.

B-RAFV600E = molecular target: T1, B-RAFV600E (Homo sapiens, UniProt P15056, V600E); assay: B-RAFV600E radiometric assay; type: biochemical; conditions: read-out: Kinase assay B-Raf
T1 construct: purchased Millipore, USA 14-557
T1 sequence (P15056 416-766 V600E limits assumed): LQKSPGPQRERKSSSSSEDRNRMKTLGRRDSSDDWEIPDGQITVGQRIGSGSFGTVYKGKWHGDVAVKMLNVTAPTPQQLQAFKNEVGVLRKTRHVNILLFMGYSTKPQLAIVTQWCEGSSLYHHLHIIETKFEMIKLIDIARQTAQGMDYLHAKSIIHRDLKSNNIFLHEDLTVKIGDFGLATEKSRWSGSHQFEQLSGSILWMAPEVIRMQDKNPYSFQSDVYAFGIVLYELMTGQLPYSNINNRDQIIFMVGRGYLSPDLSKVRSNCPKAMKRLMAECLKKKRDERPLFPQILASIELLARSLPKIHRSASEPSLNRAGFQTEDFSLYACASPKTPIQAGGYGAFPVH
How it was run: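 B-RAFV600E was preincubated 45 min at rt with compound in 1% DMSO. MEK-K97M (0.5 μg), 5 μM final cold ATP and [γ-32P]ATP were then added for 2 h at rt. Phosphorylated MEK was captured on P81 paper and scintillation-counted; IC50 came from a sigmoidal dose-response fit.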

mTOR kinase = molecular target: T2, mTOR kinase (Homo sapiens, UniProt P42345); assay: mTOR kinase TR-FRET assay; type: biochemical
T2 construct: purchased Millipore, US
T2 sequence (P42345 1362-2549 limits assumed): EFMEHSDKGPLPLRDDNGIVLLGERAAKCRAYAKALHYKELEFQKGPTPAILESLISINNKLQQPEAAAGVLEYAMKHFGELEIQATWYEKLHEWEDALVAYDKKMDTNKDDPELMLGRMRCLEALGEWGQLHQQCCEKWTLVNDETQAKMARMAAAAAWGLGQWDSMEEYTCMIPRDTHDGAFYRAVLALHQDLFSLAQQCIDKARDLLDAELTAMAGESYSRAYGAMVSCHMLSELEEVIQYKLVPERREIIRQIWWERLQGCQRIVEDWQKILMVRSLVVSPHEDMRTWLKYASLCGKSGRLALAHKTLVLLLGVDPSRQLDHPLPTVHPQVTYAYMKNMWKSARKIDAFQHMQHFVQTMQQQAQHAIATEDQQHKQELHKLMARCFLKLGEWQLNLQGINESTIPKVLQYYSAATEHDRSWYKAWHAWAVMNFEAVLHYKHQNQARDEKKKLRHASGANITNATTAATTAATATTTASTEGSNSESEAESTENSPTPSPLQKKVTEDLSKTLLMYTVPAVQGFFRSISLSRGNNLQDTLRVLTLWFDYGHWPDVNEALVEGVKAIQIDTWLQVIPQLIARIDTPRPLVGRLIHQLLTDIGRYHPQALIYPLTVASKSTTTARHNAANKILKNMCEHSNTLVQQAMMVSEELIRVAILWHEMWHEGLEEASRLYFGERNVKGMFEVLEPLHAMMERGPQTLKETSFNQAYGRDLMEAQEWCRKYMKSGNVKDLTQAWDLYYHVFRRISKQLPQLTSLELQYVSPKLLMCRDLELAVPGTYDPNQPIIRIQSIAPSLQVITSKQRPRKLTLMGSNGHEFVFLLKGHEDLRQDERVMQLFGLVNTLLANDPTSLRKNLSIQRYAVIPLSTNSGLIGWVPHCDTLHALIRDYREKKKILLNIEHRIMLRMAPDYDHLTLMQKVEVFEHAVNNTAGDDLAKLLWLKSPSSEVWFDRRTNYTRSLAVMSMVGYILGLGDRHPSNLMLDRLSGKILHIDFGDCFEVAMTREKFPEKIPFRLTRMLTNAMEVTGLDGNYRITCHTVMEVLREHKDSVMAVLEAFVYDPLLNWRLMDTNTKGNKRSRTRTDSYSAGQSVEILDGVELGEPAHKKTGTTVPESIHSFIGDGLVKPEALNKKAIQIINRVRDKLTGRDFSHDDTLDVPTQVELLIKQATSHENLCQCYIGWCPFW
How it was run: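 TR-FRET with ULight-p70 S6K (Thr 389) peptide (50 nM) and 20 μM ATP in 50 mM HEPES pH 7.5, 1 mM EGTA, 3 mM MnCl2; compound pre-incubated with enzyme before substrate addition, reaction at rt, EDTA-stopped. Eu anti-phospho antibody read 665/615 nm; IC50 from sigmoidal dose-response fit.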

A375 cells = assay: XTT assay for cell viability, A375 cells; type: cell-based; conditions: Homo sapiens, A-375, 72 h
How it was run: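 RKO and A375 cells seeded at 1000-2000/well overnight, then exposed to compound for 72 h at 37° C., 5% CO2. XTT (1 mg/ml)/PMS (25 μM) added for 2-3 h; absorbance at 450 nm. Growth relative to DMSO control (100%); GI50 from sigmoidal dose-response fit.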

pERK in RKO cells = assay: In Cell Western (ICW) assay, pERK in RKO cells; type: cell-based; conditions: Homo sapiens, 3 h treatment
Protocol: (§1) Cell lines A375, A2058 and RKO obtained from the ATCC as provided above, were grown, and after attaining ˜80% confluency were trypsinized, centrifuged and resuspended in fresh media. The cells were seeded at the specified density (20,000 to 50,000) in a 96-well format black-well clear bottom plate (Corning) and incubated overnight at 37° C. in a 5% CO2 incubator. The next day, compound dilutions of test compounds were prepared in 100% DMSO followed by dilutions in respective media. Treatment of test compounds was performed for 3 h at 37° C. in 5% CO2 incubator. Following 3 h drug treatment, the conditional media was discarded and the cells were washed once with cPBS (PBS containing 0.1% magnesium chloride hexahydrate and 0.1% anhydrous calcium chloride) and fixed with 4% paraformaldehyde in cPBS for 1 h at rt. After fixing, the cells were given three washes using cPBST (cPBS containing 0.1% Triton™ X-100 reagent) and then blocked using blocking solution (5% skimmed milk powder or 5% BSA prepared in cPBST) for 2 h at rt with shaking at 300 rpm. The cells were again washed thrice with cPBST and incubated with primary antibody phospho-p44/42 MAPK(Erk1/2)(Thr202/204) antibody (Cell Signaling, Catalog # 9101L), phospho S6 ribosomal protein (Cell Signaling, Catalog #4858L), phospho AKT (Thr 308) (Cell Signaling, Catalog #9275) or phospho AKT (Ser 473) (Cell Signaling, Catalog #4060L) in specified dilutions (1:500-1:2500), prepared in respective blocking solutions, in a racker overnight at 4° C. The next day, the cells were washed with 1× Delfia® wash buffer (4×1 wash) and incubated with secondary antibody (Delfia®-Eu-N1 labeled anti-rabbit antibody; PerkinElmer, Catalog #AD0105; dilutions: 1:2000 to 1:6000 in Delfia® assay buffer (PerkinElmer, Catalog #1244-111)) for 2 h at rt in the dark at 300 rpm. The cells were then given four washes with 1× Delfia® wash buffer and incubated with Wallac Delfia® Enhancement solution (100 μL; PerkinElmer, Catalog #1244-105) for 20 min at rt in the dark at 300 rpm. The fluorescence emission was then read at 615 nm with an excitation wavelength of 340 nm using a Victor V5 Fluorometer (Perkin Elmer, US). The cells were then washed once with 1×cPBS and incubated with 100 μL of 0.5 mg/mL of Hoechst 33258 dye prepared in cPBS and read at 460 nm with 355 nm excitation, thereby evaluating the correction factor.
(§2) The % inhibition for the test compounds of formula (I) (new chemical entities (NCEs)) was calculated keeping DMSO control as 0% and the IC50 values were determined using sigmoidal dose response curve fit in GraphPad Prism® v5 software.

pS6RP in RKO cells = assay: In Cell Western (ICW) assay, pS6RP in RKO cells; type: cell-based; conditions: Homo sapiens, 3 h treatment
Protocol: as §1, §2

pERK in A375 cells = assay: In Cell Western (ICW) assay, pERK in A375 cells; type: cell-based; conditions: Homo sapiens, A-375, 3 h treatment
How it was run: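 RKO or A375 cells were exposed to compounds for 3 h at 37 °C, then fixed and stained in-cell with antibodies to pERK1/2 (T202/Y204), pS6RP or pAKT T308, followed by a Eu-labelled secondary. Time-resolved fluorescence (340/615 nm) was normalized to Hoechst, and IC50 values were fitted sigmoidally against DMSO as 0% inhibition.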

| SMILES | IC50 (B-RAFV600E) | IC50 (mTOR kinase) | IC50 (A375 cells) | IC50 (pERK in RKO cells) | IC50 (pS6RP in RKO cells) | IC50 (pERK in A375 cells) | IC50 (RKO cells) |
| --- | --- | --- | --- | --- | --- | --- | --- |
| Nc1ccc(-c2nc(N3CCOCC3)c3cc(-c4cccc(NS(=O)(=O)CCCF)c4F)cc(N4CCOCC4)c3n2)cn1 [Example 5, N-(3-(2-(6-aminopyridin-3-yl)-4,8-dimorpholinoquinazolin-6-yl)-2-fluorophenyl)-3-fluoropropane-1-sulfonamide] | 1 to 100 nM | 1 to 100 nM | 1 to 100 nM | 1 to 100 nM | 1 to 100 nM | 1 to 100 nM | 100 to 1000 nM |
| COc1cc(-c2cccc(NS(=O)(=O)CCCF)c2F)cc2c(N3CCOCC3)nc(-c3ccc(N)nc3)nc12 [Example 30, N-(3-(2-(6-aminopyridin-3-yl)-8-methoxy-4-morpholinoquinazolin-6-yl)-2-fluorophenyl)-3-fluoropropane-1-sulfonamide] | 1 to 100 nM | 100 to 1000 nM | 100 to 1000 nM | 1 to 100 nM | 100 to 1000 nM | 1 to 100 nM | 100 to 1000 nM |
| COc1cc(-c2cccc(NS(=O)(=O)CCCF)c2F)cc2c(N3CCOC[C@H]3C)nc(-c3ccc(N)nc3)nc12 [Example 42, (R)-N-(3-(2-(6-aminopyridin-3-yl)-8-methoxy-4-(3-methylmorpholino)quinazolin-6-yl)-2-fluorophenyl)-3-fluoropropane-1-sulfonamide] | 1 to 100 nM | 1 to 100 nM | 1 to 100 nM | 1 to 100 nM | 100 to 1000 nM | 1 to 100 nM | 100 to 1000 nM |

More lines, main results first:

| IC50 (B-RAFV600E) | IC50 (mTOR kinase) | IC50 (A375 cells) | IC50 (pERK in RKO cells) | IC50 (pS6RP in RKO cells) | IC50 (pERK in A375 cells) | SMILES | IC50 (RKO cells) |
| --- | --- | --- | --- | --- | --- | --- | --- |
| 1 to 100 nM | 100 to 1000 nM | 1 to 100 nM | 1 to 100 nM | 100 to 1000 nM | 1 to 100 nM | CCOc1cc(-c2cccc(NS(=O)(=O)CCCF)c2F)cc2c(N3CCOCC3)nc(-c3ccc(N)nc3)nc12 [Example 52, N-(3-(2-(6-aminopyridin-3-yl)-8-ethoxy-4-morpholinoquinazolin-6-yl)-2-fluorophenyl)-3-fluoropropane-1-sulfonamide] | 100 to 1000 nM |
| 1 to 100 nM | 100 to 1000 nM | 1 to 100 nM | 1 to 100 nM | 100 to 1000 nM | 1 to 100 nM | CC(C)Oc1cc(-c2cccc(NS(=O)(=O)CCCF)c2F)cc2c(N3CCOCC3)nc(-c3ccc(N)nc3)nc12 [Example 55, N-(3-(2-(6-aminopyridin-3-yl)-8-isopropoxy-4-morpholinoquinazolin-6-yl)-2-fluorophenyl)-3-fluoropropane-1-sulfonamide] | 100 to 1000 nM |
| 1 to 100 nM | 1 to 100 nM | 1 to 100 nM | 1 to 100 nM | 100 to 1000 nM | 1 to 100 nM | CC(C)Oc1cc(-c2cccc(NS(=O)(=O)CCCF)c2F)cc2c(N3CCOC[C@H]3C)nc(-c3ccc(N)nc3)nc12 [Example 63, (R)-N-(3-(2-(6-aminopyridin-3-yl)-8-isopropoxy-4-(3-methylmorpholino)quinazolin-6-yl)-2-fluorophenyl)-3-fluoropropane-1-sulfonamide] | 100 to 1000 nM |
| 1 to 100 nM | 1 to 100 nM | 1 to 100 nM | 1 to 100 nM | 100 to 1000 nM | 1 to 100 nM | C[C@@H]1COCCN1c1nc(-c2cnc(N)nc2)nc2c(N3CCOCC3)cc(-c3cccc(NS(=O)(=O)CCCF)c3F)cc12 [Example 73, (R)-N-(3-(2-(2-aminopyrimidin-5-yl)-4-(3-methylmorpholino)-8-morpholinoqulnazolin-6-yl)-2-fluorophenyl)-3-fluoropropane-1-sulfonamide] | 100 to 1000 nM |
